Experimental data published in patent publication US20260034091A1, “Compositions and Methods for Treating Metabolic Disorders” (The Regents of the University of California, priority 2022, published 2026).

How the values were obtained:
[1] = tested on: CDAHFD diet-induced NAFLD/NASH with PPARA KO; experiment: TOFA in genetic PPARA knockout mice, CDAHFD model of NAFLD/NASH; assay type: in vivo, PPARA knockout (PPARA KO) male mice
Protocol: (§1) Six-week-old genetic PPARA knockout (PPARA KO) male mice were fed with a L-amino acid diet with 60 kcal % fat with 0.1% methionine and no added choline (CDAHFD; Research Diets A06071302i) for three weeks or fed with a 60 kcal % fat diet (DIO; Research Diets A12492i) for eight weeks before introduction of either vehicle (control) or 125 mg/kg of TOFA, BID, via oral gavage for an additional two weeks (FIG. 11A and FIG. 11J, respectively). C57BL/6J (WT) mice were fed with the CDAHFD and underwent similar experimental conditions and time course. Mice weights and adverse events were monitored during the treatment time course. Upon study termination, serum and liver samples were collected. Serum liver damage biomarkers, ALT and AST, were measured by commercially available kits (abcam105134 and abcam 105135, respectively). Hepatic and serum triglyceride levels were measured from a commercially available kit (abcam65336). Total RNA was extracted from liver tissues (Qiagen RNeasy kit 74106), and cDNA was prepared (BioRAD iScript™M Reverse Transcription) according to manufacturer's protocols. Quantitative PCR (qPCR) was performed with fast SYBR Green Mix (ThermoFisher A25742) on the QuantStudio6 System (Applied Biosciences). Protein expression levels of liver samples were measured by western blot using antibodies against ACC1/2 (CST3662, 1:1000), VLDLR (AF2258, 1:2000), CPT1A (CST12252, 1:1000), PPARA (abcam126285, 1:1000) and beta-tubulin (CST2146, 1:1000). Membranes were developed using a HRP secondary antibody (1:5000) and visualized using an enhanced chemiluminescent HRP substrate (Thermo34577). Additional liver samples were fixed in 4% paraformaldehyde and embedded in paraffin blocks for sectioning and subsequently stained with hematoxylin and eosin (H&E). Frozen fresh liver tissue was embedded in OCT, sectioned, and subsequently stained with Oil Red O.

[2] = tested on: PPAR signaling pathway; experiment: RNA sequencing, qPCR and western blot of liver samples from CDAHFD late stage NAFLD/NASH mice; assay type: in vivo, C57BL/6 male mice
Protocol: Six-week-old C57BL/6 male mice were fed with a L-Amino Acid Diet With 60 kcal % Fat With 0.1% Methionine and No Added Choline (Research Diets A06071302i) for eight weeks before introduction of either vehicle (control) or 250 mg/kg of TOFA daily via twice daily controlled oral gavage for an additional four weeks (FIG. 3A). Upon study termination at 12 weeks, serum and liver samples were collected. Serum liver damage biomarkers, ALT and AST, were measured by commercially available kits (abcam105134 and abcam 105135, respectively). Hepatic and serum triglyceride levels were measured from a commercially available kit (abcam65336). Liver samples were fixed in 4% paraformaldehyde and embedded in paraffin blocks for sectioning and subsequently stained with hematoxylin and eosin (H&E) or Picrosirius Red with a fast green dye background. Frozen fresh liver tissue was embedded in OCT, sectioned, and subsequently stained with Oil Red O.
Liver samples were collected from mice in Example 3 (see above). Total RNA was extracted from liver tissues (Qiagen RNeasy kit), cDNA libraries were constructed (Roche KAPA HyperPrep kit), sequenced on the NovaSeq6000 platform (Novogene), and a downstream analysis pipeline was performed. Differentially expressed genes (DEGs) were defined by at least one log2-fold change (2-fold in linear scale) with an FDR cutoff of 0.05. For validation, total RNA was used to prepare cDNA (BioRAD iScript™ Reverse Transcription) according to manufacturer's protocol and quantitative polymerase chain reaction (qPCR) was performed with fast SYBR Green Mix (ThermoFisher) on the QuantStudio6 System (Applied Biosystems). Protein expression levels were measured by western blot using antibodies against very low density lipoprotein receptor (VLDLR) (AF2258, 1:2000) and btubulin (CST2146, 1:1000). Membranes were developed using a horse radish peroxidase (HRP) secondary antibody (1:5000) and visualized using an enhanced chemiluminescent HRP substrate (Thermo34577).

[3] = tested on: CDAHFD induced NAFLD progression in mice; experiment: Dose dependent effect of TOFA in CDAHFD-induced NAFLD progression in mice; assay type: in vivo; settings: 3 weeks
Protocol: Six-week-old C57BL/6 male mice were fed with a L-Amino Acid Diet With 60 kcal % Fat With 0.1% Methionine and No Added Choline (Research Diets A06071302i) for three weeks before introduction of either vehicle (control) or TOFA via oral gavage for an additional three weeks (FIG. 1a). Mice were gavaged orally twice daily with varying doses of TOFA (0, 25, 50, 125, or 250 mg/kg per day). Upon study termination at six weeks, serum and liver samples were collected. Serum liver damage biomarkers, alanine transaminase (ALT) and aspartate transaminase (AST), were measured by commercially available kits (abcam105134 and abcam 105135, respectively). Hepatic triglycerides were detected from liver samples from a commercially available kit (abcam65336). Liver samples were also scored for degree of hepatic steatosis based on their hematoxylin and eosin (H&E) staining.

[4] = tested on: 60% HFD diet-induced obesity with PPARA KO; experiment: TOFA in genetic PPARA knockout mice, 60% HFD diet-induced obesity (DIO) model; assay type: in vivo, PPARA knockout (PPARA KO) male mice
Protocol: as §1

[5] = liver samples of Example 3, RNA-seq
[6] = TOFA 0, 25, 50, 125, or 250 mg/kg per day, oral gavage twice daily

SMILES: CCCCCCCCCCCCCCOc1ccc(C(=O)O)o1 [TOFA, 5-(Tetradecyloxy)-2-furoic acid]
- body weight ([1]; 125 mg/kg BID oral gavage, two weeks): trending decrease in weight
- Cpt1a mRNA (RT-qPCR) ([1]; 125 mg/kg BID, two weeks): blunted
- hepatic steatosis (H&E) ([1]; 125 mg/kg BID, two weeks): minimal decreases in hepatic steatosis
- lipid content by Oil Red O ([1]; 125 mg/kg BID, two weeks): minimal changes in lipid content
- liver triglyceride (hepatic lipid levels) ([1]; 125 mg/kg BID, two weeks): no notable decrease
- serum ALT levels ([1]; 125 mg/kg BID, two weeks): marginal decreases
- serum AST levels ([1]; 125 mg/kg BID, two weeks): marginal decreases
- protein expression levels of CPT1A, VLDLR, and ACC1 (western blot) ([1]; relative to vehicle control): not observed
- protein expression levels of VLDLR (western blot) ([2]; liver samples of Example 3): increase in protein expression levels
- GSEA: inflammatory response [2, 5]: negative correlation
- GSEA: oxidative phosphorylation, fatty acid metabolism, peroxisomes [2, 5]: significantly upregulated
- genes of the PPAR signaling pathway (2021 KEGG human database) [2, 5]: upregulated various genes under PPAR transcriptional control
- expression of VLDLR gene (mRNA, qPCR) ([2]; liver samples of Example 3, relative to r18S mRNA): significant increase
- highest upregulated genes (RNA-seq of liver) ([2]; liver samples of Example 3, FDR cutoff 0.05, 2-fold change): canonical PPAR-alpha target genes
- degree of hepatic steatosis (H&E score) [3, 6]: decreased degree of hepatic steatosis correlating to an increased dosage of TOFA
- liver triglyceride contents per gram of liver [3, 6]: decreased in a dose dependent manner
- serum ALT activity levels [3, 6]: dose dependent decrease
- serum AST activity levels [3, 6]: dose dependent decrease
- tolerability ([3]; TOFA up to 250 mg/kg per day, oral): well tolerated
- body weight upon treatment start ([4]; 125 mg/kg BID oral gavage): decrease in weight
- Vldlr mRNA (RT-qPCR) ([4]; 125 mg/kg BID, two weeks): blunted response
- hepatic steatosis (H&E-stained liver sections) ([4]; 125 mg/kg BID, two weeks): minimal changes in hepatic steatosis
- serum triglyceride (serum lipid levels) ([4]; 125 mg/kg BID, two weeks): elevated serum lipid levels
- adverse events ([4]; 125 mg/kg BID, two-week treatment period): Adverse events were observed
